Source: patent US11072608B2, “Pesticidally active heterocyclic derivatives with sulphur containing substituents” (SYNGENTA PARTICIPATIONS AG, priority 2014, dated 2021)

Columns and labels:
Format in all cases: in vivo
[1] = system: Spodoptera littoralis (Egyptian cotton leaf worm); assay: Example B1: activity against Spodoptera littoralis, cotton leaf disc spray; settings: foliar, 72 h, application rate of 200 ppm, cotton leaf discs, L1 larvae, 3 days after infestation, read-out: control in at least one of the three categories (mortality, anti-feedancy or growth inhibition)
Procedure: Example B1: Activity Against Spodoptera littoralis (Egyptian Cotton Leaf Worm)
Cotton leaf discs were placed on agar in 24-well microtiter plates and sprayed with aqueous test solutions prepared from 10,000 ppm DMSO stock solutions. After drying the leaf discs were infested with five L1 larvae. The samples were assessed for mortality, anti-feedant effect, and growth inhibition in comparison to untreated samples 3 days after infestation. Control of Spodoptera littoralis by a test sample is when at least one of mortality, anti-feedant effect, and growth inhibition is higher than the untreated sample. The following compound gave an effect of at least 80% control in at least one of the three categories (mortality, anti-feedancy or growth inhibition) at an application rate of 200 ppm: P1, P4, P5, P8, P9, P10, P12 and P13.

[2] = system: Plutella xylostella (diamond back moth); assay: Example B3: activity against Plutella xylostella, artificial diet; settings: 120 h, application rate of 200 ppm, L2 larvae, 5 days after infestation, read-out: effect in at least one of the two categories (mortality or growth inhibition)
Procedure: Example B3: Activity Against Plutella xylostella (Diamond Back Moth)
24-well microtiter plates with artificial diet were treated with aqueous test solutions prepared from 10,000 ppm DMSO stock solutions by pipetting. After drying, the plates were infested with L2 larvae (10 to 15 per well). The samples were assessed for mortality and growth inhibition in comparison to untreated samples 5 days after infestation. The following compound gave an effect of at least 80% in at least one of the two categories (mortality or growth inhibition) at an application rate of 200 ppm: P1, P4, P5, P6, P8, P9, P10, P11, P12 and P13.

[3] = system: Euschistus heros (neotropical brown stink bug); assay: Example B8: activity against Euschistus heros, soybean leaf spray; settings: 120 h, application rate of 200 ppm, N-2 nymphs, 5 days after infestation
Procedure: Example B8: Activity Against Euschistus heros (Neotropical Brown Stink Bug)
Soybean leaf on agar in 24-well microtiter plates were sprayed with aqueous test solutions prepared from 10,000 ppm DMSO stock solutions. After drying the leaf were infested with N-2 nymphs. The samples were assessed for mortality 5 days after infestation.

[4] = system: Myzus persicae (green peach aphid); assay: Example B5: activity against Myzus persicae, sunflower leaf disc spray; settings: foliar, 144 h, application rate of 200 ppm, sunflower leaf discs, mixed ages, 6 days after infestation
Procedure: Example B5: Activity Against Myzus persicae (Green Peach Aphid)
Sunflower leaf discs were placed on agar in a 24-well microtiter plate and sprayed with aqueous test solutions prepared from 10,000 ppm DMSO stock solutions. After drying, the leaf discs were infested with an aphid population of mixed ages. The samples were assessed for mortality 6 days after infestation.

[5] = system: Myzus persicae (green peach aphid); assay: Example B6: activity against Myzus persicae, sucrose solution through Parafilm; settings: 120 h, test rate of 12 ppm, 5 days after infestation
Excerpt: Example B6: Activity Against Myzus persicae (Green Peach Aphid)
Test compounds from 10,000 ppm DMSO stock solutions were applied by pipette into 24-well microtiter plates and mixed with sucrose solution. The plates were closed with a stretched Parafilm. A plastic stencil with 24 holes was placed onto the plate and infested pea seedlings were placed directly on the Parafilm. The infested plate was closed with a gel blotting paper and another plastic stencil and then turned upside down. The samples were assessed for mortality 5 days after infestation.

[6] = system: Diabrotica balteata (corn root worm); assay: Example B4: activity against Diabrotica balteata, maize sprouts spray; settings: 96 h, application rate of 200 ppm, L2 larvae, 4 days after infestation, read-out: effect in at least one of the two categories (mortality or growth inhibition)
Procedure: Example B4: Activity Against Diabrotica balteata (Corn Root Worm)
Maize sprouts, placed on an agar layer in 24-well microtiter plates were treated with aqueous test solutions prepared from 10,000 ppm DMSO stock solutions by spraying. After drying, the plates were infested with L2 larvae (6 to 10 per well). The samples were assessed for mortality and growth inhibition in comparison to untreated samples 4 days after infestation. The following compounds gave an effect of at least 80% in at least one of the two categories (mortality or growth inhibition) at an application rate of 200 ppm: P1, P4, P5, P6, P8, P9, P10, P11, P12 and P13.

[7] = system: Spodoptera littoralis (Egyptian cotton leaf worm); assay: Example B2: activity against Spodoptera littoralis, systemic via lettuce on agar; settings: 144 h, application rate of 12.5 ppm, Spodoptera eggs, 6 days after infestation, read-out: control in at least one of the three categories (mortality, anti-feedancy or growth inhibition)
Excerpt: Example B2: Activity Against Spodoptera Littoralis (Egyptian Cotton Leaf Worm)
Test compounds were applied by pipette from 10,000 ppm DMSO stock solutions into 24-well plates and mixed with agar. Lettuce seeds were placed on the agar and the multi well plate was closed by another plate which contains also agar. After 7 days the roots have absorbed the compound and the lettuce has grown into the lid plate. The lettuce leafs were now cut off into the lid plate. Spodoptera eggs were pipetted through a plastic stencil on a humid gel blotting paper and the plate closed with it. The samples were assessed for mortality, anti-feedant effect and growth inhibition in comparison to untreated samples 6 days after infestation. The following compound gave an effect of at least 80% control in at least one of the three categories (mortality, anti-feedancy or growth inhibition) at an application rate of 12.5 ppm: P1, P4, P9, P12 and P13.

[8] = system: Bemisia tabaci (cotton white fly); assay: Example B7: activity against Bemisia tabaci, cotton leaf disc spray; settings: foliar, 144 h, application rate of 200 ppm, cotton leaf discs, adult white flies, 6 days after incubation
Procedure: Example B7: Activity Against Bemisia tabaci (Cotton White Fly)
Cotton leaf discs were placed on agar in 24-well microtiter plates and sprayed with aqueous test solutions prepared from 10,000 ppm DMSO stock solutions. After drying the leaf discs were infested with adult white flies. The samples were checked for mortality 6 days after incubation.

[9] = system: Frankliniella occidentalis (western flower thrips); assay: Example B10: activity against Frankliniella occidentalis, sunflower leaf disc spray; settings: foliar, 168 h, application rate of 200 ppm, sunflower leaf discs, mixed ages, 7 days after infestation
Procedure: Example B10: Activity Against Frankliniella occidentalis (Western Flower Thrips)
Sunflower leaf discs were placed on agar in 24-well microtiter plates and sprayed with aqueous test solutions prepared from 10,000 DMSO stock solutions. After drying the leaf discs were infested with a Frankliniella population of mixed ages. The samples were assessed for mortality 7 days after infestation.

[10] = system: Thrips tabaci (onion thrips); assay: Example B11: activity against Thrips tabaci, sunflower leaf disc spray; settings: foliar, 144 h, application rate of 200 ppm, sunflower leaf discs, mixed ages, 6 days after infestation
Procedure: Example B11: Activity Against Thrips tabaci (Onion Thrips)
Sunflower leaf discs were placed on agar in 24-well microtiter plates and sprayed with aqueous test solutions prepared from 10,000 ppm DMSO stock solutions. After drying the leaf discs were infested with a Thrips population of mixed ages. The samples were assessed for mortality 6 days after infestation.

[11] = system: Myzus persicae (green peach aphid); assay: Example B9: activity against Myzus persicae, roots of pea seedlings in test solution; settings: 144 h, test rate of 24 ppm, 6 days
Procedure: Example B9: Activity Against Myzus persicae (Green Peach Aphid)
Roots of pea seedlings infested with an aphid population of mixed ages were placed directly into aqueous test solutions prepared from 10,000 DMSO stock solutions. The samples were assessed for mortality 6 days after placing seedlings into test solutions.

CCSc1cc(C2CC2)cnc1-c1nc2cc(C(F)(F)F)cnc2n1C [Compound P1, 2-(5-cyclopropyl-3-ethylsulfanyl-2-pyridyl)-3-methyl-6-(trifluoromethyl)imidazo[4,5-b]pyridine]
≥ 80%: percent control (mortality, anti-feedancy or growth inhibition) at 200 ppm [1] | percent effect (mortality or growth inhibition) at 200 ppm [2] | mortality at 200 ppm [3] | mortality at 200 ppm [4] | mortality at 12 ppm [5] | percent effect (mortality or growth inhibition) at 200 ppm [6] | control at 12.5 ppm [7]

CCS(=O)(=O)c1cc(C2CC2)cnc1-c1nc2cc(C(F)(F)F)cnc2n1C [Compound P4, 2-(5-cyclopropyl-3-ethylsulfonyl-2-pyridyl)-3-methyl-6-(trifluoromethyl) imidazo[4,5-b]pyridine]
≥ 80%: mortality at 200 ppm [8] | percent control (mortality, anti-feedancy or growth inhibition) at 200 ppm [1] | percent effect (mortality or growth inhibition) at 200 ppm [2] | mortality at 200 ppm [3] | mortality at 200 ppm [4] | mortality at 200 ppm [9] | percent effect (mortality or growth inhibition) at 200 ppm [6] | control at 12.5 ppm [7]

CCS(=O)(=O)c1cc(C2(C#N)CC2)cnc1-c1nc2cc(C(F)(F)F)cnc2n1C [Compound P9, 1-[5-ethylsulfonyl-6-[3-methyl-6-(trifluoromethyl)imidazo[4,5-b]pyridin-2-yl]-3-pyridyl]cyclopropanecarbonitrile]
≥ 80%: mortality at 200 ppm [8] | percent control (mortality, anti-feedancy or growth inhibition) at 200 ppm [1] | percent effect (mortality or growth inhibition) at 200 ppm [2] | mortality at 200 ppm [3] | mortality at 200 ppm [4] | mortality at 200 ppm [9] | mortality at 200 ppm [10] | mortality at 24 ppm [11] | percent effect (mortality or growth inhibition) at 200 ppm [6] | control at 12.5 ppm [7]

CCS(=O)(=O)c1cc(C2(C(N)=O)CC2)cnc1-c1nc2cc(C(F)(F)F)cnc2n1C [Compound P11, 1-[5-ethylsulfonyl-6-[3-methyl-6-(trifluoromethyl)imidazo[4,5-b]pyridin-2-yl]-3-pyridyl]cyclopropanecarboxamide]
≥ 80%: mortality at 200 ppm [8] | percent effect (mortality or growth inhibition) at 200 ppm [2] | mortality at 200 ppm [3] | mortality at 200 ppm [4] | mortality at 200 ppm [9] | mortality at 24 ppm [11] | percent effect (mortality or growth inhibition) at 200 ppm [6]

CCS(=O)(=O)c1cc(C2(C#N)CC2)cnc1-c1nc2cc(SC(F)(F)F)cnc2n1C [Compound P13, 1-[5-ethylsulfonyl-6-[3-methyl-6-(trifluoro-methylsulfanyl)imidazo[4,5-b]pyridin-2-yl]-3-pyridyl]cyclopropanecarbonitrile]
≥ 80%: mortality at 200 ppm [8] | percent control (mortality, anti-feedancy or growth inhibition) at 200 ppm [1] | percent effect (mortality or growth inhibition) at 200 ppm [2] | mortality at 200 ppm [3] | mortality at 200 ppm [4] | mortality at 200 ppm [9] | mortality at 200 ppm [10] | percent effect (mortality or growth inhibition) at 200 ppm [6] | control at 12.5 ppm [7]
